We go through 21 molecules from patent US7951827B2, “Synthesis and antiprotozoal activity of dicationic 3,5-diphenylisoxazoles” (The University of North Carolina at Chapel Hill, priority 2005, dated 2011).

Data set [1] deals with Trypanosoma brucei brucei. As to the kind of experiment: In vitro antiprotozoal activity against Trypanosoma brucei brucei. The data set is classed as cell-based. On the procedure:
(§1) In vitro antiprotozoal activities, see Ismail, M. A., et al., J. Med. Chem. 46, 4761-4769 (2003), and cytotoxicity were measured following established protocols, see Balz, T., et al., EMBO J., 4, 1273-1277 (1985); Räz. B., et al., Acta Trop., 68:139-147 (1997); and Sperandeo, N. R. et al., Chem. Biochem., 4, 69-73 (2003). […] Other positive controls employed were melarsoprol (against T. brucei), chloroquine, and artemisinin (against P. falciparum), and podophyllotoxin (against VERO cells).

The subject of a further data set is Plasmodium falciparum. As to the kind of experiment: In vitro antiprotozoal activity against Plasmodium falciparum. The data set is classed as cell-based. The conditions noted are these: Plasmodium falciparum. The protocol:
as §1

The nature of data set [2]: Cytotoxicity to VERO cells. The conditions noted are these: African green monkey (Cercopithecus aethiops). Type of data set: cell-based, African green monkey (Cercopithecus Aethiops). The protocol: as §1
[3] abbreviates: Trypanosoma brucei, Table 1, read-out: IC50 (μM) Trypanosoma brucei brucei.
Setting [4] is: Table 1, read-out: IC50 (μM) Plasmodium falciparum.
Setting [5] is: IC50 (μM) Cytotoxicity VERO cells.
[6] abbreviates: Trypanosoma brucei, read-out: IC50 values against T. brucei brucei.
[7] abbreviates: read-out: antiplasmodial IC50 values (P. falciparum).

Counter-ions that a name gives are not always drawn. Like-named read-outs stand apart in the source and are kept apart here.

One may read the melting point as the temperature of the solid-liquid transition. As usually defined, the IC50 is the point on the concentration scale where inhibition reaches its midpoint.

With `N=C(N)c1ccc(-c2cc(-c3ccccc3)on2)cc1` (as salt: hydrochloride) [Compound 2, 3-(4-Amidinophenyl)-5-phenylisoxazole], the melting point was in the range of 287 to 292 °C.
As for `N=C(N)c1ccc(-c2cc(-c3ccccc3)on2)cc1` [Compound 2, 3-(4-Amidinophenyl)-5-phenylisoxazole], the concentration for half-maximal inhibition (IC50) in data set [1] (setting [3]) stood at 1.12 µM; in the data set on Plasmodium falciparum (setting [4]) it was 3.3 µM; in data set [2] (setting [5]), 18.5 µM.
As for `N=C(N)c1ccc(-c2cc(-c3cccc(C(=N)N)c3)no2)cc1` [Compound 13, 3-(3-Amidinophenyl)-5-(4-amidinophenyl)isoxazole dihydrochloride], the IC50 was 0.0063 µM in data set [1] (setting [3]); 0.0035 to 0.009 µM in data set [1] (setting [6]); 0.0578 µM in the data set with Plasmodium falciparum (setting [4]); 0.0578 µM in the data set on Plasmodium falciparum (setting [7]); 24.1 µM in data set [2] (setting [5]).
Take `CCN(CC)CCCC(C)Nc1ccnc2cc(Cl)ccc12` (centres unmarked) [Chloroquine, reference compound]: the IC50 in the data set on Plasmodium falciparum (read-out: IC50 (μM) Plasmodium falciparum) was found to be 0.104 µM.
Regarding `Cl.Cl.N=C(N)c1ccc(-c2cc(-c3cc(C(=N)N)ccc3Cl)on2)cc1` [Compound 25, 5-(5-Amidino-2-chlorophenyl)-3-(4-amidinophenyl)isoxazole dihydrochloride], the melting point is 356 to 358 °C (dec.). Besides, the half-inhibitory concentration (IC50) in data set [1] (setting [3]) came out at 0.0209 µM. For the same molecule, the concentration for half-maximal inhibition (IC50) with Plasmodium falciparum (setting [4]) was determined as 0.0035 µM. Besides, in the data set on Plasmodium falciparum (setting [7]), the IC50 was below 0.008 µM. It took 71.4 µM to reach half-maximal inhibition in data set [2] (setting [5]) (IC50).
On to `Cl.Cl.N=C(N)c1cccc(-c2cc(-c3cc(C(=N)N)ccc3[N+](=O)[O-])on2)c1` [Compound 35, 5-(5-Amidino-2-nitrophenyl)-3-(3-amidinophenyl)isoxazole dihydrochloride], for which the melting point was 222 °C (dec.). In addition, the IC50 in data set [1] (setting [3]) was 1.63 µM. For the same molecule, the IC50 in the data set on Plasmodium falciparum (setting [4]) came to 0.334 µM. The midpoint of inhibition in data set [2] (setting [5]), the IC50, lay at 9.8 µM.
On to `Cl.N=C(N)c1ccc(-c2cc(-c3ccccc3)no2)cc1` [Compound 1, 5-(4-Amidinophenyl)-3-phenylisoxazole hydrochloride], for which the melting point lay in the range of 262 to 265 °C. In data set [1] (setting [3]), the IC50 worked out at 1.72 µM. Also, in the data set on Plasmodium falciparum (setting [4]), the IC50 worked out at 3.3 µM. The molecule further yielded an IC50 in data set [2] (setting [5]) of 19.1 µM.
Molecule `Cl.Cl.N=C(N)c1cccc(-c2cc(-c3ccc(C(=N)N)cc3[N+](=O)[O-])on2)c1` [Compound 16, 5-(4-Amidino-2-nitrophenyl)-3-(3-amidinophenyl)isoxazole dihydrochloride] showed a melting point of 225 °C. Besides, the IC50 in data set [1] (setting [3]) was 0.009 µM. In addition, the IC50 in data set [1] (setting [6]) fell in the range of 0.0035 to 0.009 µM. Besides, in the data set on Plasmodium falciparum (setting [4]), the 50% inhibitory concentration (IC50) is 0.0259 µM. Moreover, in the data set on Plasmodium falciparum (setting [7]), the IC50 lay in the range of 0.008 to 0.03 µM. For the same molecule, the IC50 in data set [2] (setting [5]) was 48 µM.
In turn, `Cl.Cl.N=C(N)c1ccc(-c2cc(-c3cccc(C(=N)N)c3)on2)cc1` [Compound 22, 3-(4-Amidinophenyl)-5-(3-amidinophenyl)isoxazole di hydrochloride] registered a melting point of 336 to 338 °C. The IC50 in data set [1] (setting [3]) stood at 0.0035 µM. Further, in data set [1] (setting [6]), the IC50 is 0.0035 to 0.009 µM. Moreover, the IC50 in the data set with Plasmodium falciparum (setting [4]) came to 0.0025 µM. Further, the half-maximal inhibitory concentration (IC50) in data set [2] (setting [5]) amounted to 31.2 µM.
The molecule `Cl.Cl.N=C(N)c1cccc(-c2cc(-c3ccc(C(=N)N)cc3Cl)on2)c1` [Compound 17, 5-(4-Amidino-2-chlorophenyl)-3-(3-amidinophenyl)isoxazole dihydrochloride] showed a melting point of 242 to 245 °C. Also, the IC50 in data set [1] (setting [3]) stood at 0.0063 µM. The IC50 in data set [1] (setting [6]) is 0.0035 to 0.009 µM. The IC50 in the data set with Plasmodium falciparum (setting [4]) came to 0.0187 µM. Further, the IC50 in the data set with Plasmodium falciparum (setting [7]) was 0.008 to 0.03 µM. The IC50 in data set [2] (setting [5]) came to 82.7 µM.
In the case of `C[C@@H]1CC[C@H]2[C@@H](C)C(=O)O[C@@H]3O[C@@]4(C)CC[C@@H]1[C@]32OO4` [Artemisinin, reference compound], the IC50 in the data set with Plasmodium falciparum (setting [4]) is 0.0067 µM.
As for `COc1ccc(C(=N)N)cc1-c1cc(-c2ccc(C(=N)N)cc2)no1.Cl.Cl` [Compound 26, 5-(5-Amidino-2-methoxyphenyl)-3-(4-amidinophenyl)isoxazole dihydrochloride], the melting point was 240 to 242 °C. For the same molecule, the 50% inhibitory concentration (IC50) in data set [1] (setting [3]) was determined as 0.0043 µM. Moreover, in data set [1] (setting [6]), the IC50 was in the range of 0.0035 to 0.009 µM. Also, the IC50 with Plasmodium falciparum (setting [4]) was 0.0116 µM. Besides, in the data set on Plasmodium falciparum (setting [7]), the IC50 fell in the range of 0.008 to 0.03 µM. The same molecule had a 50% inhibitory concentration (IC50) in data set [2] (setting [5]) of 52.8 µM.
As for `COc1ccc(C(=N)N)cc1-c1cc(-c2cccc(C(=N)N)c2)on1.Cl.Cl` [Compound 40, 3-(5-Amidino-2-methoxyphenyl)-5-(3-amidinophenyl)isoxazole dihydrochloride], the melting point is 210 °C (dec.). Further, in data set [1] (setting [3]), the IC50 was found to be 0.027 µM. Also, the IC50 with Plasmodium falciparum (setting [4]) worked out at 0.0174 µM. The concentration for half-maximal inhibition (IC50) in the data set with Plasmodium falciparum (setting [7]) is 0.008 to 0.03 µM. In data set [2] (setting [5]), this molecule had an IC50 of 215 µM.
`Cl.Cl.N=C(N)c1ccc(-c2cc(-c3ccc(C(=N)N)cc3[N+](=O)[O-])on2)cc1` [Compound 6, 5-(4-Amidino-2-nitrophenyl)-3-(4-amidinophenyl)isoxazole dihydrochloride]: the melting point is > 350 °C (dec.). Also, in data set [1] (setting [3]), the IC50 worked out at 0.0139 µM. In the data set on Plasmodium falciparum (setting [4]), the IC50 came out at 0.0149 µM. In addition, the 50% inhibitory concentration (IC50) in the data set with Plasmodium falciparum (setting [7]) fell in the range of 0.008 to 0.03 µM. Besides, the midpoint of inhibition in data set [2] (setting [5]), the IC50, lay at 15.8 µM.
As for `Nc1nc(N)nc(Nc2ccc([As]3SCC(CO)S3)cc2)n1` (centres unmarked) [Melarsoprol, reference compound], the IC50 in data set [1] (Trypanosoma brucei, read-out: IC50 (μM) Trypanosoma brucei brucei) stood at 0.00637 µM.
`Cl.Cl.N=C(N)c1ccc(-c2cc(-c3ccc(C(=N)N)cc3[N+](=O)[O-])no2)cc1` [Compound 9, 3-(4-Amidino-2-nitrophenyl)-5-(4-amidinophenyl)isoxazole dihydrochloride]: the melting point is 350 °C (dec.). Also, in data set [1] (setting [3]), the IC50 was 0.0324 µM. Besides, in the data set with Plasmodium falciparum (setting [4]), the IC50 stood at 0.0401 µM. This molecule had an IC50 in data set [2] (setting [5]) of 22.2 µM.
For `COc1ccc(C(=N)N)cc1-c1cc(-c2cc(C(=N)N)ccc2OC)on1.Cl.Cl` [Compound 41, 3,5-Bis(5-amidino-2-methoxyphenyl)isoxazole dihydrochloride], the melting point was 240 °C (dec.). Besides, in data set [1] (setting [3]), the IC50 was 0.0042 µM. The IC50 in data set [1] (setting [6]) lay in the range of 0.0035 to 0.009 µM. In addition, the IC50 in the data set on Plasmodium falciparum (setting [4]) amounted to 0.0211 µM. The half-inhibitory concentration (IC50) in the data set with Plasmodium falciparum (setting [7]) lay in the range of 0.008 to 0.03 µM. In data set [2] (setting [5]), this molecule had an IC50 of 79.9 µM.
With `N=C(N)c1ccc(-c2cc(-c3ccc(C(=N)N)cc3Cl)no2)cc1` [Compound 10, 3-(4-Amidino-2-chlorophenyl)-5-(4-amidinophenyl)isoxazole dihydrochloride], the half-maximal inhibitory concentration (IC50) in data set [1] (setting [3]) was determined as 0.0232 µM; with Plasmodium falciparum (setting [4]) it was 0.0555 µM; in data set [2] (setting [5]), 5.69 µM.
With `N=C(N)c1ccc(-c2cc(-c3ccc(C(=N)N)cc3)on2)cc1` [Compound 3, 3,5-Bis(4-amidinophenyl)isoxazole dihydrochloride], the IC50 in data set [1] (setting [3]) was 0.0051 µM; in data set [1] (setting [6]), 0.0035 to 0.009 µM; in data set [1] (dihydrochloride, read-out: IC50 values against T. brucei brucei), 0.0051 µM; with Plasmodium falciparum (setting [4]), 0.0226 µM; in data set [2] (setting [5]), 2.13 µM.
For `COc1cc([C@@H]2c3cc4c(cc3[C@H](O)[C@H]3COC(=O)[C@H]23)OCO4)cc(OC)c1OC` [Podophyllotoxin, reference compound], the IC50 in data set [2] (Table 1, read-out: IC50 (μM) Cytotoxicity VERO cells) was determined as 0.0186 µM.
On to `N=C(N)c1cccc(-c2cc(-c3cc(C(=N)N)ccc3Cl)no2)c1` [Compound 39, 3-(5-Amidino-2-chlorophenyl)-5-(3-amidinophenyl)isoxazole dihydrochloride], for which the IC50 was determined as 0.0463 µM in data set [1] (setting [3]), 0.0306 µM with Plasmodium falciparum (setting [4]) and 55.5 µM in data set [2] (setting [5]).
